Results: patent US3937838A, “Orally active bronchospasmolytic compounds and their preparation” (priority 1966, dated 1976)
Where two headings read alike, the source gives them in different places.

Legend:
[1] = test system: isolated guinea pig auricle; assay: Dual bath preparation, effect on left auricle (Example 8a); conditions: same bath
Procedure: The left auricle was dissected out and mounted together with spirally-cut trachea from the same animal in a 100 ml bath in Kreb's solution (37°C.) well aereated with a mixture of oxygen (95%) and carbon dioxide (5%). The auricle was electrically stimulated with square wave pulses from a Techtronic Stimulator (voltage 2-4; duration: 10 m sec; frequency 1 per second). This is, in general, the same procedure described above in Example 5c.
Using the dual bath preparation, tests were made of the effect on the trachea and auricle of KWD2025 (of the present invention) and of the known drugs KWD2109 and epinephrine. The drug to be tested was added to the bath in the predetermined amount and allowed to act upon the organs for 10 minutes.

[2] = test system: histamine induced bronchoconstriction; assay: Bronchospasmolytic effect in vivo, Konzett and Rossler (Example 5b); design: species or system guinea pig; conditions: measured as described above
Procedure: Orciprenaline and terbutaline were also tested in vivo according to the method described by Konzett and Rossler [Arch. Exp. Path. Pharmak. 195 (1940) page 71]. In the method of Konzett and Rossler, the animal is ventilated with a constant volume of air. When a certain pressure has been reached in the lung, the volume of air which is in excess of the pulmonary capacity will escape through the valve. This surplus of air is recorded. The testing compounds in the Konzett and Rossler method, bronchial contraction is provoked by administration of histamine. The histamine reduced the capacity of the airways, and the measured overflow increases. In order to see to what extent a test compound counteracts the histamine-induced bronchospasm, the animal is first given an injection of the test compound which is followed 3 minutes later by exposure to histamine.

[3] = test system: isolated rabbit heart; assay: Effect on isolated heart, Langendorff preparation (Example 5d); conditions: same procedure
Procedure: The effect of the compound of the present invention was also studied on isolated rabbit heart (Langendorff preparation) the method used as described by Anden et al. (Acta Pharmacol. et Toxicol., 21 (1964) page 247). In this procedure, the isolated heart is mounted in a Krebs solution and the test compound is injected into it. Measurements are continuously recorded of the rate and force of contraction.
The tests using epinephrine establish a standard of comparison to evaluate subsequent test compounds in the same preparation.

[4] = test system: bronchospasm induced by histamine aerosol; assay: Protecting effect against histamine aerosol in intact guinea pigs (Example 7c); type: in vivo, guinea pig; conditions: Cavia porcellus, m ± s.e., read-out: ED50 (protecting 50 per cent of the animals for more than 4 minutes)
Procedure: The compounds KWD2109 and KWD2025 have been compared in preventing bronchospasm induced by histamine aerosol in guinea pigs.
The drug was injected intraperitoneally 15 minutes (Table 2) or administered orally 30 minutes (Table 3) before histamine treatment. The dose of the drugs protecting 50 per cent of the animals for more than 4 minutes is denoted "ED50". In untreated animals only 1-2 percent will withstand the histamine aerosol for more than 4 minutes.
To study the duration of the effect, 2 mg/kg was administered orally to intact guinea pigs at different time intervals before the histamine treatment. Two series each including eleven groups of six animals was studied. The groups were tested in histamine aerosol 10, 20, 30, 40, 50, 60, 120, 180, 240, 300 and 360 minutes after the administration of the compound. The per cent of animals in each group protected more than 4 minutes and more than 10 minutes was determined.

[5] = Acute toxicity in mice (Example 9); conditions: mouse, in vivo, iv, mice
[6] = test system: isolated guinea pig heart; assay: Effect on isolated guinea pig heart, Langendorff (Example 7d); conditions: KWD2025 given index 1.0
Procedure: The isolated guinea pig heart was perfused according to Langendorff. The method used is described by Anden et al. (Acta. Pharmacol. et Toxicol. 21, 247, 1964). Contractions in the heart were recorded by means of a force displacement transducer and aa Grass polygraph Model 7. Epinephrine was used as reference. KWD2109 and KWD2025 were tested on the same preparation. The comparisons of effects were based on dose for 50 percent increase in chronotropic effect and 10 percent increase in inotropic effect.

[7] = test system: histamine-induced bronchospasm; assay: Bronchospasmolytic effect in the anesthetized cat, Konzett & Rossler (Example 14); type: in vivo; conditions: i.v.; based on ED50-values; weight basis; Table 8
Procedure: Bronchospasmolytic effect was studied according to the method of Konzett & Rossler (see Example 5b above). Bronchospasm was induced by i.v. injections of histamine into the left jugular vein. Overflow was recorded by means of a Grass volume transducer and a Grass polygraph model 5. Changes in arterial mean pressure and heart rate, were continuously recorded during the experiment. Terbutaline was used as reference in all experiments. The comparisons are based on ED50 -values.

[8] = Toxicity study in mice (Example 18); type: in vivo; conditions: mouse, in vivo, mice (NMRI, male), 24 hours, read-out: LD 50 + Standard error
Procedure: (§1) The toxicity was studied in mice (NMRI, male, 18-28 g) 24 hours after i.v. and oral administration. The animals were observed during five days. No further deaths occurred.

[9] = test system: mice; assay: Toxicity study in mice (Example 18); type: in vivo; conditions: indicated by higher oral toxicity
Procedure: as §1

[10] = test system: bronchoconstriction by histamine aerosol; assay: Protecting effect against histamine aerosol in guinea pigs (Example 15); type: in vivo, guinea pig; conditions: for ED50: Cavia porcellus, read-out: ED50 (protecting 50 percent of the animals for more than 4 minutes)
From the text: Male guinea pigs (200--300 g) were used. Bronchoconstriction was produced by letting the animals inhale a histamine aerosol.

[11] = test system: arterial mean pressure, pulse pressure, heart rate, peripheral vascular resistance; assay: Haemodynamic studies in anesthetized cats (Example 17); type: in vivo, cat
Procedure: The haemodynamic effects of KWD2058 and terbutaline were studied in anesthetized cats after i.v. injection in the left femoral vein. Three experiments were done. The effects on arterial mean pressure, pulse pressure (right carotid artery) and heart rate were recorded.
To study the effect of the compounds on the peripheral vascular resistance, constant flow was arranged in the right hind limb on two cats by means of a Sigma motor pump connected to arteria femoralis. Injections were made intra-arterially and variations in the peripheral resistance were recorded as pressure changes.

[12] = test system: isolated guinea pig heart; assay: Effect on isolated heart from guinea pig, Langendorff (Example 16); conditions: for direct heart effect relative to terbutaline: per se
Procedure: The isolated guinea pig heart was perfused according to Langendorff. The method used is described by Anden et al. [Acta Pharmacol. et Toxicol. 21, 247, (1964)]. Contractions in the heart were recorded by a force displacement transducer and a Grass polygraph model 5. The recovery of the heart was tested with (-) epinephrine between every dose of the substance tested. Terbutaline was used as reference.

[13] = test system: guinea pig trachea; assay: Bronchospasmolytic effect in vitro (Example 13); conditions: for bronchospasmolytic effect x (-)epinephrine: based on ED50-values, weight basis, Table 7; for bronchospasmolytic effect in vitro relative to terbutaline: per se
Procedure: The trachea from a guinea pig was dissected out and spirally cut. It was mounted in a water-jacketed bath (37°C.) in Krebs solution and aerated with oxygen (95%) and carbon dioxide (5%). Pilocarpine (2 μg/ml) was added. The load was adjusted to about 2 g and relaxations in the trachea were recorded by means of a Grass force displacement transducer and a Grass polygraph model 5 (see Example 5 above). The cumulative method was used (-)-Epinephrine was used as reference. The comparisons presented in Table 7 are based on ED50 -values.

[14] = test system: spirally cut trachea from the guinea pig; assay: Dual preparation test in vitro, effect on trachea (Example 5c); conditions: slow infusion; 0.375 μg/min where stated; FIGS. 2-4
From the text: (§2) [This procedure is more fully described below in Example 5 (b)].
(§3) FIG. 2 illustrates the effect of epinephrine (EPE) and terbutaline on spirally cut trachea and right auricle from the guinea pig. Both preparations are dissected out from the same animal and run under identical experimental conditions;
(§4) Both preparations are dissected out from the same animal, and run under identical experimental conditions;
(§5) Both preparations are dissected out from the same animal and run under identical experimental conditions;
(§6) The relation between the heart stimulatory effect and bronchodilator effect was studied in vitro on auricle-trachea-preparation from the guinea pig in order to compare the effect on the heart and the effect on the bronchial muscle under identical experimental conditions. Both spontaneously bearing auricle and spirally-cut trachea were placed in the same bath in Krebs solution. Both preparations were taken from the same animal.
(§7) The compound to be tested was slowly infused into the bathing solution and the tension was measured for each of the auricle and trachael preparations.
(§8) In carrying out this dual preparation test, epinephrine was used as a reference. […] Infusion of epinephrine was made over a period of ten minutes. After washing and recovery, the test solution was infused in the same manner and the effect of the test compound was compared with the effect of epinephrine.

[15] = test system: right auricle from the guinea pig; assay: Dual preparation test in vitro, effect on auricle (Example 5c); conditions: slow infusion; 0.375 μg/min where stated; FIGS. 2-4
From the text: as §2, §3, §4, §5, §6, §7, §8
Referring more specifically to FIG. 2, the upper portion of each chart thereof represents the tension continuously recorded of the auricle preparation (shaded area 1 for the effect of epinephrine on the auricle, ref. no. 2 for the effect of terbutaline infused at a rate of 0.2 μg/min on the auricle, and ref. no. 3 for the effect of terbutaline infused at a rate of 0.375μg/min on the auricle).

| SMILES | bronchospasmolytic effect x terbutaline [7] | LD50 at 24 h ([8]; iv) | LD50 at 24 h ([8]; po) | oral absorption in comparison with terbutaline [9] | direct heart effect relative to terbutaline [12] | bronchospasmolytic effect x (-)epinephrine [13] | bronchospasmolytic effect in vitro relative to terbutaline [13] | ED50 ([10]; ip, 0.25 h) | ED50 ([10]; po, 0.5 h) | effect on heart rate x terbutaline ([12]; Table 10) | also measured |
| --- | --- | --- | --- | --- | --- | --- | --- | --- | --- | --- | --- |
| Oc1cc(O)cc(C(O)CNC2CCC2)c1 (stereo not drawn) [KWD2025, 1-(3',5'-dihydroxyphenyl)-2-(cyclobutylamino)-ethanol] |  |  |  |  |  |  |  |  |  |  | effect on force of contraction in auricle in concentrations relaxing the trachea [1]: relaxed the trachea without affecting the auricle; bronchospasmolytic effect relative to epinephrine [2]: about 0.4 times; bronchospasmolytic effect relative to orciprenaline [2]: about 1.2 times; cardiac stimulatory effect relative to epinephrine [3]: less than 0.1 times; ED50 ([4]; ip, 0.25 h, i.p., 15 minutes before histamine-aerosol): 0.6 ± 0.07 mg/kg; ED50 ([4]; po, 0.5 h, peroral, 30 minutes before histamine-aerosol): 1.7 ± 0.3 mg/kg; LD50 [5]: 54 mg/kg; therapeutic index, bronchospasmolytic effect over effect on the heart (inotropic) [6]: 1.0 |
| Br.CC(C)C(=O)Oc1cc(OC(=O)C(C)C)cc(C(O)CNC(C)(C)C)c1 (stereo not drawn) [KWD2058, 1-(3',5'-diisobutyryloxyphenyl)-2-(t-butylamino)-ethanol hydrobromide] | 1.0 ± 0.1 | 52 ± 4 mg/kg | 2150 mg/kg | improved oral absorption in comparison with terbutaline | much less direct heart effect | 0.6 ± 0.2 | weaker bronchospasmolytic effect in vitro than terbutaline |  |  |  | ED50 ([10]; 0.5 h, oral, 30 minutes before histamine): 0.15 mg/kg; ED50 ([10]; ip, 0.25 h, i.p., 15 minutes before histamine): 1 mg/kg; protecting effect relative to terbutaline ([10]; oral): 2.5 times; oral absorption in comparison with terbutaline ([10]; seen in oral ED50, Table 9): particularly good oral absorption in comparison with terbutaline; effect on arterial mean pressure, pulse pressure, heart rate and peripheral vascular resistance relative to terbutaline ([11]; cat, summary): about half; arterial mean pressure, x terbutaline ([11]; i.v., anesthetized cats): 0.4+0.1 × terbutaline; heart rate, x terbutaline ([11]; i.v., anesthetized cats): 0.4±0.1 × terbutaline; pulse rate, x terbutaline ([11]; i.v., anesthetized cats, pulse pressure in text): 0.4±0.1 × terbutaline; change in peripheral resistance, x terbutaline ([11]; intra-arterial, right hind limb, constant flow): 0.4±0.1 × terbutaline; effect on heart rate ([12]; doses up to 100 μg): no effect |
| CC(=O)Oc1cc(OC(C)=O)cc(C(O)CNC(C)(C)C)c1 (stereo not drawn) [KWD2037] | 0.7 ± 0.1 | 112 ± 5 mg/kg | 2100 mg/kg | improved oral absorption in comparison with terbutaline | much less direct heart effect | 0.7 | weaker bronchospasmolytic effect in vitro than terbutaline | 0.7 mg/kg | 0.4 mg/kg | 0.05 ± 0.01 | effect on force of contraction x terbutaline ([12]; Table 10): 0.03 ± 0.01 |
| CCC(=O)Oc1cc(OC(=O)CC)cc(C(O)CNC(C)(C)C)c1 (stereo not drawn) [KWD2057] | 0.5 | 70 ± 4 mg/kg | 2200 mg/kg | improved oral absorption in comparison with terbutaline | much less direct heart effect | 0.4 | weaker bronchospasmolytic effect in vitro than terbutaline | 0.2 mg/kg | 1 mg/kg | 0.06 |  |
| NC[C@H](O)c1ccc(O)c(O)c1 [norepinephrine, reference compound] |  |  |  |  |  |  |  |  |  |  | effect on trachea (relaxation) [14]: without affecting the bronchial muscles; effect on auricle (tension) [15]: strong effect on the heart muscle |
